These results are taken from patent publication US8217176B2, “Fused heterocyclic derivative and use thereof” (Takeda Pharmaceutical Company Limited, priority 2008, dated 2012).

The subject of the test is NIH-3T3/Gli reporter cells. Briefly: Evaluation of compound: Shh-N-induced luciferase activity in NIH-3T3/Gli reporter cells (Smo inhibitory action). Format: cell-based. To be noted: 48 hr; for inhibition at 1 µM: NIH3T3, 1 μM compound, mouse Shh-N end fragment supernatant, read-out: inhibition rate (%) at 1 μM; for pIC50: NIH3T3, mouse Shh-N end fragment supernatant, read-out: IC50 value (compound concentration necessary for achieving 50% of the maximum value of inhibition rate). The procedure:
HEK293 cells were grown in D-MEM medium (Invitrogen) containing 10% fetal bovine serum in a 10 cm dish and pcDNA3.1/mShh-N was introduced into the cells using FuGENE6 (Roche Applied Science). Thereafter, the HEK293 cells were cultured in a carbon dioxide gas incubator at 37° C. for 24 hours, and the medium was exchanged with D-MEM medium (Invitrogen) containing 2% fetal bovine serum. After culturing for 48 hr, a culture supernatant containing recombinant type mouse Shh-N end fragment was obtained by filtration using a filter ([…]).
Using D-MEM (Invitrogen) containing 10% fetal bovine serum, expression plasmid pcDNA3.1 and Gli reporter plasmid (pGL3/δ-cry promoter, 8×Gli binding site) produced by the method of Experimental Example 1 were introduced into NIH-3T3 cells grown in a 10 cm dish by the use of FuGENE6 (Roche Applied Science).
After culture for 24 hr, the cells were recovered, suspended in D-MEM medium containing 10% fetal bovine serum and supplemented with Geneticin (Life Technologies Oriental, Inc.) to a final concentration of 500 μg/ml, diluted to 10^4 cells/ml, plated on a 96 well plate, and cultured in a carbon dioxide gas incubator at 37° C. to give Geneticin resistant transformed cell line.
The obtained transformed cell line was cultured in a 96 well plate, mouse Shh-N end fragment obtained in Experimental Example 3 was added, and NIH-3T3/Gli reporter cell, which is a cell line capable of induction of luciferase expression, was selected.
NIH-3T3/Gli reporter cells cultured in D-MEM (Invitrogen) containing 10% fetal bovine serum were plated in a 96 well white plate at 1×10^4 cells/well, and cultured overnight in a carbon dioxide gas incubator at 37° C. The medium was removed, a compound (50 μl) and culture supernatant of mouse Shh-N end fragment-expressing HEK293 (D-MEM medium containing 2% fetal bovine serum, 50 μl) were added, and the cells were cultured for 48 hr in a carbon dioxide gas incubator at 37° C. Bright-Glo (Promega, 50 μl) was added, and the mixture was stirred, after which luciferase activity was measured by EnVision (PerkinElmer). The inhibition rate was calculated based on the luciferase activity of the control without addition of the compound as 100. The concentration of the compound and the inhibition rate were analyzed by PRISM3.00 (software of GraphPad), based on which the IC50 value (compound concentration necessary for achieving 50% of the maximum value of inhibition rate) of the compound was calculated.

pIC50: −log10 of the molar value. Structures can show the parent of a compound that is named as a salt.

Broadly, the inhibition is the share of the control response that was lost under treatment. Consider `COc1c(C(=O)NC2CCN(C(=O)CO)CC2)n(C)c2c1c(=O)n(CC(=O)c1ccccc1)c1ccncc21` [Example 644, N-[1-(hydroxyacetyl)piperidin-4-yl]-3-methoxy-1-methyl-4-oxo-5-(2-oxo-2-phenylethyl)-4,5-dihydro-1H-pyrrolo[3,2-c][1,6]naphthyridine-2-carboxamide], for which the inhibition at 1 µM was found to be 100%.

As to `CCN(C(C)=O)C1CCN(C(=O)c2sc3c(c2OC)c(=O)n(CC(=O)c2ccccc2)c2ccccc32)C1` (centres unmarked) [Example 2, N-ethyl-N-(1-{[3-methoxy-4-oxo-5-(2-oxo-2-phenylethyl)-4,5-dihydrothieno[3,2-c]quinolin-2-yl]carbonyl}pyrrolidin-3-yl)acetamide], the inhibition at 1 µM was 100% and the pIC50 was at least 6.00.

For the compound `COc1c(C(=O)NC2CCN(c3ccncc3)CC2)n(C)c2c1c(=O)n(CC(=O)c1ccccc1)c1ccccc21` [Example 563, 3-methoxy-1-methyl-4-oxo-5-(2-oxo-2-phenylethyl)-N-(1-pyridin-4-ylpiperidin-4-yl)-4,5-dihydro-1H-pyrrolo[3,2-c]quinoline-2-carboxamide], the inhibition at 1 µM came out at 100%. Still for that read-out and setting: for `CCc1cc2c(c(OCC(F)(F)F)c(C(=O)NC3CCN(C(=O)CO)CC3)n2C)c(=O)n1CC(=O)c1cccc(Cl)c1` [Example 657, 5-[2-(3-chlorophenyl)-2-oxoethyl]-6-ethyl-N-[1-(hydroxyacetyl)piperidin-4-yl]-1-methyl-4-oxo-3-(2,2,2-trifluoroethoxy)-4,5-dihydro-1H-pyrrolo[3,2-c]pyridine-2-carboxamide] the value was 100%. `CCN(CC)CCN(C)C(=O)c1c(OC)c2c(=O)n(CC(=O)c3ccccc3)c3ccccc3c2n1C` [Example 56, N-[2-(diethylamino)ethyl]-3-methoxy-N,1-dimethyl-4-oxo-5-(2-oxo-2-phenylethyl)-4,5-dihydro-1H-pyrrolo[3,2-c]quinoline-2-carboxamide hydrochloride]: the inhibition at 1 µM amounted to 100% and the pIC50 is at least 6.00. The like results for `COc1c(C(=O)NCCN2CCCCC2)sc2c1c(=O)n(CC(=O)c1ccccc1)c1ccccc21` [Example 9, 3-methoxy-4-oxo-5-(2-oxo-2-phenylethyl)-N-(2-piperidin-1-ylethyl)-4,5-dihydrothieno[3,2-c]quinoline-2-carboxamide trifluoroacetate] were, in that order, 100% and at least 6.00. For the compound `COc1c(C(=O)N(CCC#N)Cc2cccnc2)sc2c1c(=O)n(CC(=O)c1ccccc1)c1ccccc21` [Example 22, N-(2-cyanoethyl)-3-methoxy-4-oxo-5-(2-oxo-2-phenylethyl)-N-(pyridin-3-ylmethyl)-4,5-dihydrothieno[3,2-c]quinoline-2-carboxamide trifluoroacetate], the inhibition at 1 µM came to 91% and the pIC50 was at least 6.00. The matching figures for `COc1c(C(=O)NCC(C)(C)CO)n(C)c2c1c(=O)n(CC(=O)c1ccccc1)c1ccccc21` [Example 109, N-(3-hydroxy-2,2-dimethylpropyl)-3-methoxy-1-methyl-4-oxo-5-(2-oxo-2-phenylethyl)-4,5-dihydro-1H-pyrrolo[3,2-c]quinoline-2-carboxamide]: 100% and at least 6.00. Take `CCN(CC)CCN(C)C(=O)c1sc2c(c1OC)c(=O)n(CC(=O)Nc1ccccc1)c1ccccc21` [Example 52, N-[2-(diethylamino)ethyl]-3-methoxy-N-methyl-4-oxo-5-[2-oxo-2-(phenylamino)ethyl]-4,5-dihydrothieno[3,2-c]quinoline-2-carboxamide hydrochloride]: the inhibition at 1 µM was 95% and the pIC50 was at least 6.00.

On to `CCCOc1c(C(=O)NC2CCN(C(=O)CO)CC2)n(C)c2cc(CC)n(CC(=O)c3ccccc3)c(=O)c12` [Example 510, 6-ethyl-N-[1-(hydroxyacetyl)piperidin-4-yl]-1-methyl-4-oxo-5-(2-oxo-2-phenylethyl)-3-propoxy-4,5-dihydro-1H-pyrrolo[3,2-c]pyridine-2-carboxamide], for which the inhibition at 1 µM stood at 100%.

On to `COc1c(C(=O)NC2CCN(C(=O)CO)CC2)n(C)c2c1c(=O)n(CC(=O)c1ccccc1)c1ncccc21` [Example 643, N-[1-(hydroxyacetyl)piperidin-4-yl]-3-methoxy-1-methyl-4-oxo-5-(2-oxo-2-phenylethyl)-4,5-dihydro-1H-pyrrolo[3,2-c][1,8]naphthyridine-2-carboxamide], for which the inhibition at 1 µM was determined as 100%. On the same count and under the same terms, for `CCOc1c(C(=O)NC2CCN(C(=O)CO)CC2)sc2cc(CC)n(CC(=O)c3ccccc3)c(=O)c12` [Example 650, 3-ethoxy-6-ethyl-N-[1-(hydroxyacetyl)piperidin-4-yl]-4-oxo-5-(2-oxo-2-phenylethyl)-4,5-dihydrothieno[3,2-c]pyridine-2-carboxamide] the value was 100%. The same measure, in the same setting: next, `CCc1cc2c(c(OC)c(C(=O)NC3CCN(C(=O)CO)CC3)n2C)c(=O)n1CC(=O)c1ccccc1` [Example 131, 6-ethyl-N-[1-(hydroxyacetyl)piperidin-4-yl]-3-methoxy-1-methyl-4-oxo-5-(2-oxo-2-phenylethyl)-4,5-dihydro-1H-pyrrolo[3,2-c]pyridine-2-carboxamide]: 100%; `CCCOc1c(C(=O)NC2CCN(C(=O)CO)CC2)n(C)c2cc(C)n(CC(=O)c3ccccc3)c(=O)c12` [Example 137, N-[1-(hydroxyacetyl)piperidin-4-yl]-1,6-dimethyl-4-oxo-5-(2-oxo-2-phenylethyl)-3-propoxy-4,5-dihydro-1H-pyrrolo[3,2-c]pyridine-2-carboxamide]: 100%.

Take `CCN(CC)CCCC(C)NC(=O)c1sc2c(c1OC)c(=O)n(CC(=O)c1ccccc1)c1ccccc21` (centres unmarked) [Example 13, N-[4-(diethylamino)-1-methylbutyl]-3-methoxy-4-oxo-5-(2-oxo-2-phenylethyl)-4,5-dihydrothieno[3,2-c]quinoline-2-carboxamide trifluoroacetate]: the inhibition at 1 µM is 100% and the pIC50 was at least 6.00. The matching figures for `COc1c(C(=O)NCCN2CCOCC2)n(C)c2c1c(=O)n(CC(=O)c1ccccc1)c1ccccc21` [Example 71, 3-methoxy-1-methyl-N-(2-morpholin-4-ylethyl)-4-oxo-5-(2-oxo-2-phenylethyl)-4,5-dihydro-1H-pyrrolo[3,2-c]quinoline-2-carboxamide]: 100% and at least 6.00. The matching figures for `CCN(CC)CCN(C)C(=O)c1sc2c(c1OC)c(=O)n(CC1CC1)c1ccccc21` [Example 41, 5-(cyclopropylmethyl)-N-[2-(diethylamino)ethyl]-3-methoxy-N-methyl-4-oxo-4,5-dihydrothieno[3,2-c]quinoline-2-carboxamide]: 100% and at least 6.00. As for `CCCc1cc2c(c(OCC)c(C(=O)NC3CCN(C(=O)CO)CC3)n2C)c(=O)n1CC(=O)c1ccccc1` [Example 141, 3-ethoxy-N-[1-(hydroxyacetyl)piperidin-4-yl]-1-methyl-4-oxo-5-(2-oxo-2-phenylethyl)-6-propyl-4,5-dihydro-1H-pyrrolo[3,2-c]pyridine-2-carboxamide], the inhibition at 1 µM was 100%. Still for that read-out and setting: for `COc1c(C(=O)NC2CCN(C(=O)CCO)CC2)n(C)c2c1c(=O)n(CC(=O)c1ccccc1)c1ccccc21` [Example 517, N-[1-(3-hydroxypropanoyl)piperidin-4-yl]-3-methoxy-1-methyl-4-oxo-5-(2-oxo-2-phenylethyl)-4,5-dihydro-1H-pyrrolo[3,2-c]quinoline-2-carboxamide] the value was 100%. As to `CCOc1c(C(=O)N(C)CCN(CC)CC)sc2c1c(=O)n(CC(=O)c1ccccc1)c1ccccc21` [Example 45, N-[2-(diethylamino)ethyl]-3-ethoxy-N-methyl-4-oxo-5-(2-oxo-2-phenylethyl)-4,5-dihydrothieno[3,2-c]quinoline-2-carboxamide hydrochloride], the inhibition at 1 µM turned out to be 100% and the pIC50 is at least 6.00.

For the compound `COc1c(C(=O)NC(C)CN(C)C)n(C)c2c1c(=O)n(CC(=O)c1ccccc1)c1ccccc21` (centres unmarked) [Example 92, N-[2-(dimethylamino)-1-methylethyl]-3-methoxy-1-methyl-4-oxo-5-(2-oxo-2-phenylethyl)-4,5-dihydro-1H-pyrrolo[3,2-c]quinoline-2-carboxamide], the inhibition at 1 µM came to 100% and the pIC50 was at least 6.00.
